Source: paper PMC9525761, “Cytotoxicity and Genotoxicity of Biogenic Silver Nanoparticles in A549 and BEAS-2B Cell Lines” (Bioinorganic Chemistry and Applications, 2022)
Where two headings read alike, the source gives them in different places.

What was measured:
Assay type in all cases: cell-based, human
BEAS-2B cells [1] = assay: MTT cytotoxicity assay, BEAS-2B cells; conditions: for IC50: table prints none, read-out: average IC50, BEAS-2B cells (mean ± SD)
A549 cells [2] = assay: MTT cytotoxicity assay, A549 cells (with selectivity index); conditions: for Selectivity index (SI): IC50 normal cells (BEAS-2B) / IC50 cancer cells (A549); for IC50: table prints none, read-out: average IC50, A549 cells (mean ± SD)
Description: Both A549 and BEAS-2B cells were originally purchased from the American Type Culture Collection (ATCC, USA). Both cells were cultured in Dulbecco's Modified Eagle's Medium (DMEM: Gibco, USA) and 1 : 1 mixture of DMEM and Ham's F-12 (DMEM-F12; Gibco, USA) medium with phenol red and supplemented with 10% fetal bovine serum (FBS; Gibco, USA), 0.1% (v/v) penicillin-streptomycin, and 2 mM L-glutamine (PenStrep; Gibco, USA). The cell lines were maintained in a humidified environment at 37°C with 5% CO2.
The culture medium alone (without cells) was included as a blank for this test. A549 and BEAS-2B cells were treated with Cisplatin as a positive control. A total of 10 μL of MTT solution (5 mg/mL) was applied to each well at about 24 to 72 hours after treatment and was further incubated for 4 hours in the dark at 37°C with 5% CO2. Upon incubation, the mixture solution was aspirated, and 100 μL of dimethyl sulfoxide (DMSO) (Fisher Scientific, USA) was added to solubilise the purple formazan. The optical density (O.D.) of each sample was measured at a 570 nm wavelength using a microplate reader (BioTek Instruments, Inc, USA). The percentage (%) of cell viability was determined using the following formula [37]:(1) Cell viability%=O.D.treatment–O.D.blank/O.D.untreated cell–O.D.blank×100%.
Based on the measured cell viability (%), a graph was created to display the dose-response curves for each cell line. […] The data was expressed as a mean and standard deviation with each experiment consisting of triplicates. Statistical differences between untreated cells and treated cells were determined using Student's t-test (IBM SPSS Statistics 27).

A549 cells [3] = assay: Intracellular ROS, CM-H2DCFDA assay, A549 cells; conditions: A549, treated with IC50 for 24 hours; control (untreated cells) set to 1
Description: (§1) After exposure, cells were washed with PBS and loaded with 2.5 μM of CM-H2DCFDA in phenol red and FBS-free media in the dark for 30 minutes at 37°C. Subsequently, the reaction mixture was aspirated; cells were washed with fresh culture media and replaced with 100 μL of culture media. The DCF fluorescence intensity was measured at 485 nm excitation and 520 nm emission using a FLUOstar Omega fluorescence plate reader (BMG Labtech, Ortenberg, Germany). Results are presented as mean fold change ± standard deviation of three independent experiments.

BEAS-2B cells [4] = assay: Intracellular ROS, CM-H2DCFDA assay, BEAS-2B cells; conditions: treated with IC50 for 24 hours, control (untreated cells) set to 1
Description: as §1

A549 cells [5] = assay: Comet Assay DNA damage, A549 cells; design: key to DNA damage class (comet visual scoring, Classes 0–4): Class 4: Classes 0–4 to be used for visual scoring. The increased number of classes represents the increase in DNA damage severity; Class 3: Classes 0–4 to be used for visual scoring. The increased number of classes represents the increase in DNA damage severity; Class 2: Classes 0–4 to be used for visual scoring. The increased number of classes represents the increase in DNA damage severity; conditions: for DNA damage class (comet visual scoring, Classes 0–4): IC50 for 24 h (H2O2: 100 μM); for % DNA in tail / Olive tail moment / Tail length (px): IC50 for 24 h (H2O2: 100 μM, 20 minutes)
Description: (§2) The Comet Assay® kit (Trevigen, Inc, USA) was used to perform DNA damage activity analysis. […] After being detached by Accutase (BD™Bioscience, USA), the cells were collected and washed with ice-cold PBS. […] The cells were then lysed in the lysis solution at 4°C for 30 minutes. Then, the cells were kept in an alkaline unwinding solution at room temperature for 20 minutes to allow the DNA to unwind. The test was immediately followed by electrophoresis, performed at 21 V and 300 mA for 30 minutes. Slides were washed in 70% ethanol and water and stained with SYBR® gold nucleic acid gel stain (Invitrogen, Thermo Fisher Scientific, USA) before visualisation under the Olympus IX71 inverted fluorescence microscope (Olympus, Tokyo, Japan). A total of 50 cells were randomly selected and captured per sample at 100× magnification and analysed using the Open Comet Image J available at https:/www.cometbio.org/. Tail length, percentage of tail DNA, and Olive Tail Moment (OTM) were calculated for DNA damage assessment.

BEAS-2B cells [6] = assay: Comet Assay DNA damage, BEAS-2B cells; design: key to DNA damage class (comet visual scoring, Classes 0–4): Class 4: Classes 0–4 to be used for visual scoring. The increased number of classes represents the increase in DNA damage severity; Class 3: Classes 0–4 to be used for visual scoring. The increased number of classes represents the increase in DNA damage severity; Class 2: Classes 0–4 to be used for visual scoring. The increased number of classes represents the increase in DNA damage severity; conditions: for DNA damage class (comet visual scoring, Classes 0–4): IC50 for 24 h (H2O2: 100 μM); for % DNA in tail / Olive tail moment / Tail length (px): IC50 for 24 h (H2O2: 100 μM, 20 minutes)
Description: as §2

A549 cells [7] = assay: Apoptosis by DAPI and AO/PI double staining, A549 cells; conditions: A549, IC50, 24 hours
Description: (§3) DAPI staining is used to assess apoptosis-related morphological changes such as nuclear fragmentation or condensation. […] AO stains both live and dead cells, whereas PI stains only the dead cells. […] Following incubation, the cells were washed with PBS and then fixed with 1 mL of 4% paraformaldehyde (Sigma-Aldrich, St. Louis, Missouri, USA) and cold 70% ethanol for 10 minutes at room temperature. Then, the cells were stained with a 1 : 1 ratio of 10 µg/mL of DAPI (Nacalai, Tesque chemical, Kyoto, Japan) and 10 μg/mL acridine orange/propidium iodide (Sigma-Aldrich, St. Louis, Missouri, USA) and incubated for 30 minutes in the dark. An Olympus IX71 inverted fluorescence microscope (Olympus, Tokyo, Japan) was used to observe and record the morphology of the cells.

BEAS-2B cells [8] = assay: Apoptosis by DAPI and AO/PI double staining, BEAS-2B cells; conditions: IC50, 24 hours
Description: as §3

SMILES | IC50 (BEAS-2B cells [1]; 24 h) | IC50 (BEAS-2B cells [1]; 48 h) | IC50 (BEAS-2B cells [1]; 72 h) | DNA damage class (comet visual scoring, Classes 0–4) (A549 cells [5]) | % DNA in tail (A549 cells [5]) | Olive tail moment (A549 cells [5]) | Tail length (px) (A549 cells [5]) | DNA damage class (comet visual scoring, Classes 0–4) (BEAS-2B cells [6]) | % DNA in tail (BEAS-2B cells [6]) | Olive tail moment (BEAS-2B cells [6]) | Tail length (px) (BEAS-2B cells [6]) | also measured
O=[N+]([O-])[O-].[Ag+] [AgNO3, silver nitrate] | 16 ± 0.03 µM | 15 ± 0.02 µM | 14 ± 0.02 µM |  |  |  |  |  |  |  |  | concentrations decreasing proliferation of BEAS-2B cells to nearly 50% (BEAS-2B cells [1]; after 24 to 74 hours of treatment (so in the source)): 20 to 100 µM
N.N.[Cl][Pt][Cl] [Cisplatin] | 69.2 ± 1.75 µM | 31.6 ± 3.27 µM | 18.84 ± 0.13 µM | Class 3 | 48.26 ± 4.54% | 28.81 ± 4.94 | 73.83 ± 8.9 px | Class 4 | 63.79 ± 3.01% | 78.49 ± 0.8 | 160.07 ± 3.3 px | Selectivity index (SI) (A549 cells [2]; 24 h): 1.32; Selectivity index (SI) (A549 cells [2]; 48 h): 1.66; Selectivity index (SI) (A549 cells [2]; 72 h): 1.08; IC50 (A549 cells [2]; MTT, 24 h): 52.5 ± 7.92 µM; IC50 (A549 cells [2]; MTT, 48 h): 19.1 ± 3.19 µM; IC50 (A549 cells [2]; MTT, 72 h): 17.5 ± 0.6 µM; concentration at which A549 cells were significantly dead (A549 cells [2]; MTT, all three time points (24, 48, 72 h)): 50 µM; concentration at which BEAS-2B cells were significantly dead (BEAS-2B cells [1]; all three time points (24, 48, 72 h)): 65 µM; ROS level, DCF fold (A549 cells [3]): 1.16 ± 0.04 fold change; ROS level, DCF fold (BEAS-2B cells [4]): 1.23 ± 0.01 fold change; mode of cell death (DAPI, AO/PI staining), in words (A549 cells [7]): induce apoptosis; mode of cell death (DAPI, AO/PI staining), in words (BEAS-2B cells [8]): induce apoptosis
OO [H2O2] |  |  |  | Class 2 | 35.64 ± 9.31% | 9.51 ± 3.49 | 25.3 ± 6.96 px | Class 4 | 85.86 ± 2.71% | 27.63 ± 4.6 | 53.91 ± 9.95 px | 
